This note sets out measurements from article PMC8402609, “Guiding the Immune Response to a Conserved Epitope in MSP2, an Intrinsically Disordered Malaria Vaccine Candidate” (Vaccines, 2021).

The target in assay [1] is 4D11 IgG. Put plainly: SPR competition binding assay, mAb 4D11. The settings on record: read-out: Kd against 4D11 IgG. Further details: species or system mouse. On the procedure:
(§1) Affinities for peptide epitopes and dimer peptides to 4D11 and 9H4 IgG were measured by surface plasmon resonance (SPR) (Biacore T200, GE Healthcare, Parramatta, Australia) using a competition assay method developed previously. First, 3D7 MSP2 was immobilised on a CM5 chip. To determine binding, eight three-fold dilutions of peptide, from 10 µM stock were added with 50 nM 4D11/9H4 IgG to compete with the immobilised antigen. A standard curve was established by flowing eight two-fold dilutions of 4D11 or 9H4 IgG from a 100 nM stock solution.
Following the MD simulations, each peptide was synthesised by standard Fmoc synthesis. Orthogonal protection of cysteines was used to ensure that the desired disulfide bond was formed, leaving a single free cysteine for conjugation to an appropriate carrier for immunisation. […] Consequently, disulfide bond formation and cyclisation coupling were performed in solution. To determine if the additions incorporated into the dimer sequence hindered binding to 4D11, SPR was used to measure their binding affinity to the mAb (Table 2). […] For immunisations, the commonly used carrier protein, keyhole limpet hemocyanin (KLH) was chosen. As conjugation to KLH required a free thiol, an additional cysteine residue was included in all of the peptides (Figure 2).

Assay [2] addresses 9H4 IgG. Put plainly: SPR competition binding assay, mAb 9H4. On the set-up: species or system mouse. The settings on record: SPR competition assay (Biacore T200); 3D7 MSP2 immobilised on CM5 chip; eight three-fold dilutions of peptide from 10 µM with 50 nM 9H4 IgG; alanine scan of 16-residue MSP2_207–222; read-out: Kd against 9H4 IgG. How it is done: as §1
In our previous work, the minimal epitope and key residues involved in 4D11 binding were defined as the 8-residue peptide 3D7-MSP2_215–222, with Lys216, Glu217 and Asn218 crucial for binding. To characterise the epitope of 9H4 and compare it with that of 4D11, the same alanine-scan peptides were used to probe 9H4 binding (Figure 1A,B). Affinities for 9H4 binding were measured by SPR, using a competition binding assay described previously.
(In general: SPR reads the build-up and loss of mass on a sensor chip optically.)

The mark [3] stands for this setting: SPR competition assay (Biacore T200), 3D7 MSP2 immobilised on CM5 chip, eight three-fold dilutions of peptide from 10 µM with 50 nM 4D11 IgG, alanine scan of 16-residue MSP2_207–222.
[4] abbreviates: SPR competition binding assay, peptides for KLH conjugation (Table 2), 3D7 MSP2 on CM5 chip, 50 nM 4D11 IgG.

Where two headings read alike, the source gives them in different places. Where a SMILES comes first, the peptide text is derived from it. Bridges are numbered along the chain shown (N, C = ends).

Consider `CC(=O)N[C@@H](CO)C(=O)N[C@@H](CCC(N)=O)C(=O)N[C@@H](CCCCN)C(=O)N[C@@H](CCC(=O)O)C(=O)N[C@H]1CSSC[C@@H](C(=O)NCC(=O)N[C@@H](C)C(=O)N[C@@H](C)C(N)=O)NC(=O)[C@H](CC(N)=O)NC(=O)[C@H](CCC(=O)O)NC(=O)[C@H](CCCCN)NC(=O)[C@H](CC(N)=O)NC(=O)CNC(=O)[C@H](C)NC(=O)[C@H]([C@@H](C)O)NC1=O` [Peptide D213A] (Ac-SQKECTAGNKENCGAA-NH2; disulfide 5-13), for which the dissociation constant (Kd) in assay [1] (setting [3]) was 500 nM.
With `CC(=O)N[C@@H](C)C(=O)N[C@@H](CCC(N)=O)C(=O)N[C@@H](CCCCN)C(=O)N[C@@H](CCC(=O)O)C(=O)N[C@H]1CSSC[C@@H](C(=O)NCC(=O)N[C@@H](C)C(=O)N[C@@H](C)C(N)=O)NC(=O)[C@H](CC(N)=O)NC(=O)[C@H](CCC(=O)O)NC(=O)[C@H](CCCCN)NC(=O)[C@H](CC(N)=O)NC(=O)CNC(=O)[C@H](CC(=O)O)NC(=O)[C@H]([C@@H](C)O)NC1=O` [Peptide S207A] (Ac-AQKECTDGNKENCGAA-NH2; disulfide 5-13), the values for the dissociation constant Kd in assay [2] and in assay [1] (setting [3]) were 2900 nM and 500 nM, respectively.
For `CC(=O)N[C@@H](CO)C(=O)N[C@@H](CCC(N)=O)C(=O)N[C@@H](CCCCN)C(=O)N[C@@H](CCC(=O)O)C(=O)N[C@H]1CSSC[C@@H](C(=O)NCC(=O)N[C@@H](C)C(=O)N[C@@H](C)C(N)=O)NC(=O)[C@H](CC(N)=O)NC(=O)[C@H](CCC(=O)O)NC(=O)[C@H](C)NC(=O)[C@H](CC(N)=O)NC(=O)CNC(=O)[C@H](CC(=O)O)NC(=O)[C@H]([C@@H](C)O)NC1=O` [Peptide K216A] (Ac-SQKECTDGNAENCGAA-NH2; disulfide 5-13), the Kd was found to be 90 nM in assay [2] and 21000 nM in assay [1] (setting [3]).
The like results for `CC(=O)N[C@@H](CO)C(=O)N[C@@H](CCC(N)=O)C(=O)N[C@@H](CCCCN)C(=O)N[C@@H](CCC(=O)O)C(=O)N[C@H]1CSSC[C@@H](C(=O)NCC(=O)N[C@@H](C)C(=O)N[C@@H](C)C(N)=O)NC(=O)[C@H](CC(N)=O)NC(=O)[C@H](C)NC(=O)[C@H](CCCCN)NC(=O)[C@H](CC(N)=O)NC(=O)CNC(=O)[C@H](CC(=O)O)NC(=O)[C@H]([C@@H](C)O)NC1=O` [Peptide E217A] (Ac-SQKECTDGNKANCGAA-NH2; disulfide 5-13) were, in that order, 90 nM and 219000 nM.
On to `CC(=O)N[C@@H](CC(N)=O)C(=O)N[C@@H](CCCCN)C(=O)N[C@@H](CCC(=O)O)C(=O)N[C@@H](CC(N)=O)C(=O)N[C@H]1CSSC[C@@H](C(=O)NCC(=O)N[C@@H](C)C(=O)N[C@@H](C)C(=O)N[C@@H](CS)C(N)=O)NC(=O)[C@H](CC(N)=O)NC(=O)[C@H](CCC(=O)O)NC(=O)[C@H](CCCCN)NC(=O)[C@H](CC(N)=O)NC(=O)CNC(=O)CNC(=O)CNC(=O)[C@H](C)NC(=O)[C@H](C)NC(=O)CNC1=O` [Peptide L3] (Ac-NKENCGAAGGGNKENCGAAC-NH2; disulfide 5-16), for which, in assay [1] (setting [4]), the dissociation constant Kd worked out at 580 nM.
Regarding `CC(=O)N[C@@H](CC(N)=O)C(=O)N[C@@H](CCCCN)C(=O)N[C@@H](CCC(=O)O)C(=O)N[C@@H](CC(N)=O)C(=O)N[C@H]1CSSC[C@@H](C(=O)NCC(=O)N[C@@H](C)C(=O)N[C@@H](C)C(=O)N[C@@H](CS)C(N)=O)NC(=O)[C@H](CC(N)=O)NC(=O)[C@H](CCC(=O)O)NC(=O)[C@H](CCCCN)NC(=O)[C@H](CC(N)=O)NC(=O)CNC(=O)CNC(=O)[C@H](C)NC(=O)[C@H](C)NC(=O)CNC1=O` [Peptide L2] (Ac-NKENCGAAGGNKENCGAAC-NH2; disulfide 5-15), the dissociation constant (Kd) in assay [1] (setting [4]) is 670 nM.
`CC(=O)N[C@@H](CO)C(=O)N[C@@H](CCC(N)=O)C(=O)N[C@@H](CCCCN)C(=O)N[C@@H](CCC(=O)O)C(=O)N[C@H]1CSSC[C@@H](C(=O)NCC(=O)N[C@@H](C)C(=O)N[C@@H](C)C(N)=O)NC(=O)[C@H](C)NC(=O)[C@H](CCC(=O)O)NC(=O)[C@H](CCCCN)NC(=O)[C@H](CC(N)=O)NC(=O)CNC(=O)[C@H](CC(=O)O)NC(=O)[C@H]([C@@H](C)O)NC1=O` [Peptide N218A] (Ac-SQKECTDGNKEACGAA-NH2; disulfide 5-13): the figures for the Kd in assay [2] and in assay [1] (setting [3]) were 2700 nM and 6000 nM, respectively.
For `CC(=O)N[C@@H](CO)C(=O)N[C@@H](CCC(N)=O)C(=O)N[C@@H](CCCCN)C(=O)N[C@@H](C)C(=O)N[C@H]1CSSC[C@@H](C(=O)NCC(=O)N[C@@H](C)C(=O)N[C@@H](C)C(N)=O)NC(=O)[C@H](CC(N)=O)NC(=O)[C@H](CCC(=O)O)NC(=O)[C@H](CCCCN)NC(=O)[C@H](CC(N)=O)NC(=O)CNC(=O)[C@H](CC(=O)O)NC(=O)[C@H]([C@@H](C)O)NC1=O` [Peptide E210A] (Ac-SQKACTDGNKENCGAA-NH2; disulfide 5-13) the same measures were 1400 nM and 500 nM.
For `CC(=O)N[C@@H](CO)C(=O)N[C@@H](CCC(N)=O)C(=O)N[C@@H](CCCCN)C(=O)N[C@@H](CCC(=O)O)C(=O)N[C@H]1CSSC[C@@H](C(=O)NCC(=O)N[C@@H](C)C(=O)N[C@@H](C)C(N)=O)NC(=O)[C@H](CC(N)=O)NC(=O)[C@H](CCC(=O)O)NC(=O)[C@H](CCCCN)NC(=O)[C@H](CC(N)=O)NC(=O)CNC(=O)[C@H](CC(=O)O)NC(=O)[C@H](C)NC1=O` [Peptide T212A] (Ac-SQKECADGNKENCGAA-NH2; disulfide 5-13) the same measures were 4800 nM and 500 nM.
As for `C[C@@H]1NC(=O)CNC(=O)[C@@H]2CSSC[C@H](NC(=O)[C@H](CC(N)=O)NC(=O)[C@H](CCC(=O)O)NC(=O)[C@H](CCCCN)NC(=O)[C@H](CC(N)=O)NC(=O)CNC(=O)CNC(=O)[C@H](C)NC1=O)C(=O)NCC(=O)N[C@@H](C)C(=O)N[C@@H](C)C(=O)N[C@@H](CS)C(=O)NCC(=O)N[C@@H](CC(N)=O)C(=O)N[C@@H](CCCCN)C(=O)N[C@@H](CCC(=O)O)C(=O)N[C@@H](CC(N)=O)C(=O)N2` [Peptide C2] (cyclo(AACGNKENCGAAGGNKENCG); disulfide 9-19), in assay [1] (setting [4]), the dissociation constant Kd is 680 nM.
For `CC(=O)N[C@@H](CO)C(=O)N[C@@H](CCC(N)=O)C(=O)N[C@@H](CCCCN)C(=O)N[C@@H](CCC(=O)O)C(=O)N[C@H]1CSSC[C@@H](C(=O)N[C@@H](C)C(=O)N[C@@H](C)C(=O)N[C@@H](C)C(N)=O)NC(=O)[C@H](CC(N)=O)NC(=O)[C@H](CCC(=O)O)NC(=O)[C@H](CCCCN)NC(=O)[C@H](CC(N)=O)NC(=O)CNC(=O)[C@H](CC(=O)O)NC(=O)[C@H]([C@@H](C)O)NC1=O` [Peptide G220A] (Ac-SQKECTDGNKENCAAA-NH2; disulfide 5-13), the values for the Kd in assay [2] and in assay [1] (setting [3]) were 2900 nM and 42200 nM, respectively.
Consider `C[C@@H]1NC(=O)CNC(=O)[C@@H]2CSSC[C@H](NC(=O)[C@H](CC(N)=O)NC(=O)[C@H](CCC(=O)O)NC(=O)[C@H](CCCCN)NC(=O)[C@H](CC(N)=O)NC(=O)CNC(=O)[C@H](CS)NC(=O)CNC(=O)[C@H](C)NC1=O)C(=O)NCC(=O)N[C@@H](C)C(=O)N[C@@H](C)C(=O)NCC(=O)NCC(=O)NCC(=O)N[C@@H](CC(N)=O)C(=O)N[C@@H](CCCCN)C(=O)N[C@@H](CCC(=O)O)C(=O)N[C@@H](CC(N)=O)C(=O)N2` [Peptide C3] (cyclo(AAGCGNKENCGAAGGGNKENCG); disulfide 10-21), for which the Kd in assay [1] (setting [4]) came to 1040 nM.
On to `CC(=O)N[C@@H](CO)C(=O)N[C@@H](CCC(N)=O)C(=O)N[C@@H](CCCCN)C(=O)N[C@@H](CCC(=O)O)C(=O)N[C@H]1CSSC[C@@H](C(=O)NCC(=O)N[C@@H](C)C(=O)N[C@@H](C)C(N)=O)NC(=O)[C@H](CC(N)=O)NC(=O)[C@H](CCC(=O)O)NC(=O)[C@H](CCCCN)NC(=O)[C@H](CC(N)=O)NC(=O)CNC(=O)[C@H](CC(=O)O)NC(=O)[C@H]([C@@H](C)O)NC1=O` [3D7-MSP2_207–222 (WT)] (Ac-SQKECTDGNKENCGAA-NH2; disulfide 5-13), for which the values for the dissociation constant Kd in assay [2] and in assay [1] (setting [3]) were 1500 nM and 900 nM, respectively.
The like results for `CC(=O)N[C@@H](CO)C(=O)N[C@@H](CCC(N)=O)C(=O)N[C@@H](CCCCN)C(=O)N[C@@H](CCC(=O)O)C(=O)N[C@H]1CSSC[C@@H](C(=O)NCC(=O)N[C@@H](C)C(=O)N[C@@H](C)C(N)=O)NC(=O)[C@H](CC(N)=O)NC(=O)[C@H](CCC(=O)O)NC(=O)[C@H](CCCCN)NC(=O)[C@H](C)NC(=O)CNC(=O)[C@H](CC(=O)O)NC(=O)[C@H]([C@@H](C)O)NC1=O` [Peptide N215A] (Ac-SQKECTDGAKENCGAA-NH2; disulfide 5-13) were, in that order, 100 nM and 500 nM.
As to `CC(=O)N[C@@H](CO)C(=O)N[C@@H](C)C(=O)N[C@@H](CCCCN)C(=O)N[C@@H](CCC(=O)O)C(=O)N[C@H]1CSSC[C@@H](C(=O)NCC(=O)N[C@@H](C)C(=O)N[C@@H](C)C(N)=O)NC(=O)[C@H](CC(N)=O)NC(=O)[C@H](CCC(=O)O)NC(=O)[C@H](CCCCN)NC(=O)[C@H](CC(N)=O)NC(=O)CNC(=O)[C@H](CC(=O)O)NC(=O)[C@H]([C@@H](C)O)NC1=O` [Peptide Q208A] (Ac-SAKECTDGNKENCGAA-NH2; disulfide 5-13), the values for the equilibrium dissociation constant (Kd) in assay [2] and in assay [1] (setting [3]) were 2900 nM and 400 nM, respectively.

As a reminder, the Kd is a measure of binding affinity in units of concentration.
